Tested on: patients after acute myocardial infarction
Assay: TCM symptom score, total and single (chest pain, chest tightness, short breath, fatigue, palpitation, spontaneous perspiration, pale complexion), same clinical trial
Format: in vivo, human
Settings: for chest pain score 0, number of patients / chest pain score 0, percent of patients / chest pain score 3, number of patients / chest pain score 3, percent of patients / chest pain score 6, number of patients / chest pain score 6, percent of patients / chest pain score 9, number of patients / chest pain score 9, percent of patients / chest tightness score 0, number of patients / chest tightness score 0, percent of patients / chest tightness score 3, number of patients / chest tightness score 3, percent of patients / chest tightness score 6, number of patients / chest tightness score 6, percent of patients / chest tightness score 9, number of patients / chest tightness score 9, percent of patients: 12 months after treatment
From the text: 3508 patients who were in accordance with the diagnostic standards of AMI for 28 days to 2 years and differentiated as Qi deficiency and blood stagnation syndrome by TCM were studied. 0.5 g Chinese medicine composition prepared by the method of EXAMPLE 1 (Coded as QSYQ) was administrated half an hour after meal, 3 times per day.
They included the overall survival time, angina pectoris score, TCM symptom score and life quality score, where angina pectoris score, TCM symptom score and life quality score were evaluated at randomization, in 1st, 3rd, 6th, 9th, 12th month after treatment and 18th month after follow-up.
The analysis method referred to the angina pectoris score.

[1] = 12 months after treatment-baseline, FAS
[2] = 12 months after treatment-baseline, PP
[3] = FAS, 12 months after treatment-treatment

SMILES: CC(=O)Oc1ccccc1C(=O)O [Control group, aspirine]
- change of chest tightness score 9, number of patients [1]: 5
- change of chest tightness score 9, percent of patients [1]: (0.29%)
- change of chest tightness score −3, number of patients [1]: 83
- change of chest tightness score −3, percent of patients [1]: (4.86%)
- change of chest tightness score −6, number of patients [1]: 3
- change of chest tightness score −6, percent of patients [1]: (0.18%)
- change of chest tightness score −9, number of patients [1]: 0
- change of chest tightness score −9, percent of patients [1]: (0.00%)
- change of chest pain score 0, number of patients [2]: 760
- change of chest pain score 0, percent of patients [2]: (54.36%)
- change of chest pain score 3, number of patients [2]: 455
- change of chest pain score 3, percent of patients [2]: (32.55%)
- change of chest pain score 6, number of patients [2]: 131
- change of chest pain score 6, percent of patients [2]: (9.37%)
- change of chest pain score 9, number of patients [2]: 5
- change of chest pain score 9, percent of patients [2]: (0.36%)
- change of chest pain score −3, number of patients [2]: 45
- change of chest pain score −3, percent of patients [2]: (3.22%)
- change of chest pain score −6, number of patients [2]: 2
- change of chest pain score −6, percent of patients [2]: (0.14%)
- change of chest tightness score 0, number of patients [2]: 721
- change of chest tightness score 0, percent of patients [2]: (51.54%)
- change of chest tightness score 3, number of patients [2]: 539
- change of chest tightness score 3, percent of patients [2]: (38.53%)
- change of chest tightness score 6, number of patients [2]: 79
- change of chest tightness score 6, percent of patients [2]: (5.65%)
- change of chest tightness score 9, number of patients [2]: 4
- change of chest tightness score 9, percent of patients [2]: (0.29%)
- change of chest tightness score −3, number of patients [2]: 54
- change of chest tightness score −3, percent of patients [2]: (3.86%)
- change of chest tightness score −6, number of patients [2]: 2
- change of chest tightness score −6, percent of patients [2]: (0.14%)
- change of chest tightness score −9, number of patients [2]: 0
- change of chest tightness score −9, percent of patients [2]: (0.00%)
- chest pain score 0, number of patients (FAS): 858
- chest pain score 0, percent of patients (FAS): (49.94%)
- chest pain score 3, number of patients (FAS): 607
- chest pain score 3, percent of patients (FAS): (35.33%)
- chest pain score 6, number of patients (FAS): 248
- chest pain score 6, percent of patients (FAS): (14.44%)
- chest pain score 9, number of patients (FAS): 5
- chest pain score 9, percent of patients (FAS): (0.29%)
- chest tightness score 0, number of patients (FAS): 858
- chest tightness score 0, percent of patients (FAS): (49.94%)
- chest tightness score 3, number of patients (FAS): 607
- chest tightness score 3, percent of patients (FAS): (35.33%)
- chest tightness score 6, number of patients (FAS): 248
- chest tightness score 6, percent of patients (FAS): (14.44%)
- chest tightness score 9, number of patients (FAS): 5
- chest tightness score 9, percent of patients (FAS): (0.29%)
- chest pain score 0, number of patients (PP): 725
- chest pain score 0, percent of patients (PP): (51.67%)
- chest pain score 3, number of patients (PP): 501
- chest pain score 3, percent of patients (PP): (35.71%)
- chest pain score 6, number of patients (PP): 176
- chest pain score 6, percent of patients (PP): (12.54%)
- chest pain score 9, number of patients (PP): 1
- chest pain score 9, percent of patients (PP): (0.07%)
- chest tightness score 0, number of patients (PP): 725
- chest tightness score 0, percent of patients (PP): (51.67%)
- chest tightness score 3, number of patients (PP): 501
- chest tightness score 3, percent of patients (PP): (35.71%)
- chest tightness score 6, number of patients (PP): 176
- chest tightness score 6, percent of patients (PP): (12.54%)
- chest tightness score 9, number of patients (PP): 1
- chest tightness score 9, percent of patients (PP): (0.07%)
- change of short breath 0, % of patients [3]: (55.85%)
- change of short breath 2, % of patients [3]: (32.92%)
- change of short breath 2, number of patients [3]: 563
- change of short breath 4, % of patients [3]: (4.09%)
- change of short breath 4, number of patients [3]: 70
- change of short breath 6, % of patients [3]: (0.70%)
- change of short breath 6, number of patients [3]: 12
- change of short breath −2, % of patients [3]: (6.32%)
- change of short breath −2, number of patients [3]: 108
- change of short breath −4, % of patients [3]: (0.12%)
- change of short breath −4, number of patients [3]: 2
- distribution of total score of TCM symptom: Medium, number of patients (FAS, 1 month after treatment): 675
- distribution of total score of TCM symptom: Medium, percentage of patients (FAS, 1 month after treatment): (40.11%)
- distribution of total score of TCM symptom: Mild, number of patients (FAS, 1 month after treatment): 989
- distribution of total score of TCM symptom: Mild, percentage of patients (FAS, 1 month after treatment): (58.76%)
- distribution of total score of TCM symptom: Severe, number of patients (FAS, 1 month after treatment): 19
- distribution of total score of TCM symptom: Severe, percentage of patients (FAS, 1 month after treatment): (1.13%)
- fatigue score 0, % of patients (FAS, 1 month after treatment): (24.05%)
- fatigue score 0, number of patients (FAS, 1 month after treatment): 413
- fatigue score 2, % of patients (FAS, 1 month after treatment): (60.75%)
- fatigue score 2, number of patients (FAS, 1 month after treatment): 1043
- fatigue score 4, % of patients (FAS, 1 month after treatment): (13.86%)
- fatigue score 4, number of patients (FAS, 1 month after treatment): 238
- fatigue score 6, % of patients (FAS, 1 month after treatment): (1.34%)
- fatigue score 6, number of patients (FAS, 1 month after treatment): 23
- pale complexion score 0, number of patients (FAS, 1 month after treatment): 713
- pale complexion score 0, percent of patients (FAS, 1 month after treatment): (41.53%)
- pale complexion score 1, number of patients (FAS, 1 month after treatment): 726
- pale complexion score 1, percent of patients (FAS, 1 month after treatment): (42.28%)
- pale complexion score 2, number of patients (FAS, 1 month after treatment): 245
- pale complexion score 2, percent of patients (FAS, 1 month after treatment): (14.27%)
- pale complexion score 3, number of patients (FAS, 1 month after treatment): 33
- pale complexion score 3, percent of patients (FAS, 1 month after treatment): (1.92%)
- palpitation score 0, number of patients (FAS, 1 month after treatment): 427
- palpitation score 0, percent of patients (FAS, 1 month after treatment): (24.87%)
- palpitation score 1, number of patients (FAS, 1 month after treatment): 1
- palpitation score 1, percent of patients (FAS, 1 month after treatment): (0.06%)
- palpitation score 2, number of patients (FAS, 1 month after treatment): 834
- palpitation score 2, percent of patients (FAS, 1 month after treatment): (48.57%)
- palpitation score 4, number of patients (FAS, 1 month after treatment): 398
- palpitation score 4, percent of patients (FAS, 1 month after treatment): (23.18%)
- palpitation score 6, number of patients (FAS, 1 month after treatment): 57
- palpitation score 6, percent of patients (FAS, 1 month after treatment): (3.32%)
- short breath score 0, % of patients (FAS, 1 month after treatment): (21.14%)
- short breath score 0, number of patients (FAS, 1 month after treatment): 363
- short breath score 3, % of patients (FAS, 1 month after treatment): (54.22%)
- short breath score 3, number of patients (FAS, 1 month after treatment): 931
- short breath score 6, % of patients (FAS, 1 month after treatment): (23.88%)
- short breath score 6, number of patients (FAS, 1 month after treatment): 410
- short breath score 9, % of patients (FAS, 1 month after treatment): (0.76%)
- short breath score 9, number of patients (FAS, 1 month after treatment): 13
- spontaneous perspiration score 0, number of patients (FAS, 1 month after treatment): 603
- spontaneous perspiration score 0, percent of patients (FAS, 1 month after treatment): (35.12%)
- spontaneous perspiration score 1, number of patients (FAS, 1 month after treatment): 879
- spontaneous perspiration score 1, percent of patients (FAS, 1 month after treatment): (51.19%)
- spontaneous perspiration score 2, number of patients (FAS, 1 month after treatment): 215
- spontaneous perspiration score 2, percent of patients (FAS, 1 month after treatment): (12.52%)
- spontaneous perspiration score 3, number of patients (FAS, 1 month after treatment): 20

— patent US9211310B2, “Use of a Chinese medicine composition in preparing medicaments for treating secondary prevention of myocardial infarction” (TASLY PHARMACEUTICAL GROUP CO., LTD, priority 2010, dated 2015)
